Reference: US6737383B1, “Herbicidal oxadiazolidines” (priority 1999, dated 2004)

Experiments:
morningglory = experiment: Test B pre/postemergence morningglory; type: in vivo, Ipomoea hederacea
From the text: (§1) Seeds of bedstraw (Galium aparine), blackgrass (Alopecurus myosuroides), surinam grass (Brachiaria decumbens), cocklebur (Xanthium strumarium), corn (Zea mays), crabgrass (Digitaria sanguinalis), giant foxtail (Setaria faberii), morningglory (Ipomoea hederacea), pigweed (Amaranthus retroflexus), rape (Brassica napus), soybean (Glycine max), sugar beet (Beta vulgaris), velvetleaf (Abutilon theophrasti), wheat (Triticum aestivum), wild oat (Avena fatua) and purple nutsedge (Cyperus rotundus) tubers were planted and treated preemnergence with test chemicals formulated in a non-phytotoxic solvent mixture which included a surfactant.
(§2) At the same time, these crop and weed species were also treated with postemergence applications of test chemicals formulated in the same manner. Plants ranged in height from 2 to 18 cm (1- to 4-leaf stage) for postemergence treatments. Plant species in the flood test consisted of rice (Oryza sativa), smallflower flatsedge (Cyperus difformis), duck salad (Heteranthera limosa) and bamyardgrass (Echinochloa crus-galli) grown to the 2-leaf stage for testing. Treated plants and controls were maintained in a greenhouse for twelve to sixteen days, after which all species were compared to controls and visually evaluated. Plant response ratings, summarized in Table B, are based on a scale of 0 to 10 where 0 is no effect and 10 is complete control. A dash (−) response means no test result.

giant foxtail = experiment: Test B pre/postemergence giant foxtail; type: in vivo, Setaria faberii
From the text: as §1, §2

corn = experiment: Test B pre/postemergence corn; type: in vivo, Zea mays
From the text: as §1, §2

cocklebur = experiment: Test B pre/postemergence cocklebur; type: in vivo, Xanthium strumarium
From the text: as §1, §2

velvetleaf = experiment: Test B pre/postemergence velvetleaf; type: in vivo, Abutilon theophrasti
From the text: as §1, §2

sugar beet = experiment: Test B pre/postemergence sugar beet; type: in vivo, Beta vulgaris
From the text: as §1, §2

surinam grass = experiment: Test B pre/postemergence surinam grass; type: in vivo, Brachiaria decumbens
From the text: as §1, §2

bedstraw = experiment: Test B pre/postemergence bedstraw; type: in vivo, Galium aparine; details: for Bedstraw plant response rating: Rate 500 g/ha
From the text: as §1, §2

pigweed = experiment: Test B pre/postemergence pigweed; type: in vivo, Amaranthus retroflexus
From the text: as §1, §2

purple nutsedge = experiment: Test B pre/postemergence purple nutsedge; type: in vivo, Cyperus rotundus
From the text: as §1, §2

crabgrass = experiment: Test B pre/postemergence crabgrass; type: in vivo, Digitaria sanguinalis
From the text: as §1, §2

wild oat = experiment: Test B pre/postemergence wild oat; type: in vivo, Avena fatua
From the text: as §1, §2

wheat = experiment: Test B pre/postemergence wheat; type: in vivo, Triticum aestivum
From the text: as §1, §2

rape = experiment: Test B pre/postemergence rape; type: in vivo, Brassica napus
From the text: as §1, §2

soybean = experiment: Test B pre/postemergence soybean; type: in vivo, Glycine max
From the text: as §1, §2

blackgrass = experiment: Test B pre/postemergence blackgrass; type: in vivo, Alopecurus myosuroides
From the text: as §1, §2

[1] = Postemergence, Rate 62 g/ha, scale 0 to 10, 0 is no effect, 10 is complete control
[2] = Postemergence, Rate 250 g/ha, scale 0 to 10, 0 no effect, 10 complete control
[3] = Preemergence, Rate 62 g/ha, scale 0 to 10, 0 is no effect, 10 is complete control
[4] = Preemergence, Rate 125 g/ha, scale 0 to 10 (0 no effect, 10 complete control)
[5] = Preemergence, Rate 250 g/ha, scale of 0 to 10 where 0 is no effect and 10 is complete control
[6] = Preemergence, Rate 500 g/ha, scale 0 (no effect) to 10 (complete control)
[7] = Rate 125 g/ha, Postemergence, scale 0 to 10, 0 no effect, 10 complete control
[8] = Rate 500 g/ha, Postemergence, 0 to 10 scale (0 no effect, 10 complete control)

Cc1ccccc1-n1c(=O)on(C(=O)N(c2ccc(C(F)(F)F)cc2)C(C)C)c1=O [Compound 39]
3: Crabgrass plant response rating (crabgrass; [2]) | Plant response rating, Crabgrass (crabgrass; [4]) | Soybean plant response rating (soybean; [1])
2: Plant response rating, Sugarbeets (sugar beet; [3]) | Plant response rating, Rape (rape; [3])
0: Morningglory plant response rating (morningglory; [1]) | Morningglory plant response rating (morningglory; [2]) | Plant response rating, Morningglory (morningglory; [3]) | Plant response rating, Morningglory (morningglory; [4]) | Plant response rating, Morningglory (morningglory; [5]) | Morningglory plant response rating (morningglory; [6]) | Morningglory plant response rating (morningglory; [7]) | Morningglory plant response rating (morningglory; [8]) | Giant foxtail plant response rating (giant foxtail; [1]) | Giant foxtail plant response rating (giant foxtail; [2]) | Plant response rating, Giant foxtail (giant foxtail; [3]) | Plant response rating, Giant foxtail (giant foxtail; [4]) | Giant foxtail plant response rating (giant foxtail; [7]) | Giant foxtail plant response rating (giant foxtail; [8]) | Corn plant response rating (corn; [1]) | Corn plant response rating (corn; [2]) | Plant response rating, Corn (corn; [3]) | Plant response rating, Corn (corn; [4]) | Plant response rating, Corn (corn; [5]) | Corn plant response rating (corn; [6]) | Corn plant response rating (corn; [7]) | Corn plant response rating (corn; [8]) | Cocklebur plant response rating (cocklebur; [1]) | Cocklebur plant response rating (cocklebur; [2]) | Plant response rating, Cocklebur (cocklebur; [3]) | Plant response rating, Cocklebur (cocklebur; [4]) | Plant response rating, Cocklebur (cocklebur; [5]) | Cocklebur plant response rating (cocklebur; [6]) | Cocklebur plant response rating (cocklebur; [7]) | Cocklebur plant response rating (cocklebur; [8]) | Velvetleaf plant response rating (velvetleaf; [2]) | Plant response rating, Velvetleaf (velvetleaf; [3]) | Plant response rating, Velvetleaf (velvetleaf; [4]) | Plant response rating, Velvetleaf (velvetleaf; [5]) | Velvetleaf plant response rating (velvetleaf; [6]) | Velvetleaf plant response rating (velvetleaf; [7]) | Sugarbeets plant response rating (sugar beet; [1]) | Sugarbeets plant response rating (sugar beet; [2]) | Plant response rating, Sugarbeets (sugar beet; [4]) | Plant response rating, Sugarbeets (sugar beet; [5]) | Sugarbeets plant response rating (sugar beet; [6]) | Sugarbeets plant response rating (sugar beet; [7]) | B. signalgrass plant response rating (surinam grass; [1]) | B. signalgrass plant response rating (surinam grass; [2]) | Plant response rating, B. signalgrass (surinam grass; [3]) | Plant response rating, B. signalgrass (surinam grass; [4]) | Plant response rating, B. signalgrass (surinam grass; [5]) | B. signalgrass plant response rating (surinam grass; [6]) | B. signalgrass plant response rating (surinam grass; [7]) | B. signalgrass plant response rating (surinam grass; [8]) | Plant response rating, Bedstraw (bedstraw; [3]) | Plant response rating, Bedstraw (bedstraw; [4]) | Plant response rating, Bedstraw (bedstraw; [5]) | Bedstraw plant response rating (bedstraw; Preemergence, scale 0 (no effect) to 10 (complete control)) | Bedstraw plant response rating (bedstraw; Postemergence, 0 to 10 scale (0 no effect, 10 complete control)) | Redroot pigweed plant response rating (pigweed; [1]) | Redroot pigweed plant response rating (pigweed; [2]) | Plant response rating, Redroot pigweed (pigweed; [3]) | Redroot pigweed plant response rating (pigweed; [7]) | Redroot pigweed plant response rating (pigweed; [8]) | Nutsedge plant response rating (purple nutsedge; [1]) | Nutsedge plant response rating (purple nutsedge; [2]) | Plant response rating, Nutsedge (purple nutsedge; [3]) | Plant response rating, Nutsedge (purple nutsedge; [4]) | Plant response rating, Nutsedge (purple nutsedge; [5]) | Nutsedge plant response rating (purple nutsedge; [6]) | Nutsedge plant response rating (purple nutsedge; [7]) | Nutsedge plant response rating (purple nutsedge; [8]) | Crabgrass plant response rating (crabgrass; [1]) | Plant response rating, Crabgrass (crabgrass; [3]) | Crabgrass plant response rating (crabgrass; [7]) | Wild oats plant response rating (wild oat; [1]) | Wild oats plant response rating (wild oat; [2]) | Plant response rating, Wild oats (wild oat; [4]) | Plant response rating, Wild oats (wild oat; [5]) | Wild oats plant response rating (wild oat; [6]) | Wild oats plant response rating (wild oat; [7]) | Wheat plant response rating (wheat; [1]) | Wheat plant response rating (wheat; [2]) | Plant response rating, Wheat (wheat; [3]) | Plant response rating, Wheat (wheat; [4]) | Plant response rating, Wheat (wheat; [5]) | Wheat plant response rating (wheat; [6]) | Wheat plant response rating (wheat; [7]) | Rape plant response rating (rape; [1]) | Rape plant response rating (rape; [2]) | Plant response rating, Rape (rape; [4]) | Plant response rating, Rape (rape; [5]) | Rape plant response rating (rape; [6]) | Rape plant response rating (rape; [7]) | Rape plant response rating (rape; [8]) | Plant response rating, Soybean (soybean; [3]) | Plant response rating, Soybean (soybean; [4]) | Plant response rating, Soybean (soybean; [5]) | Soybean plant response rating (soybean; [6]) | Blackgrass plant response rating (blackgrass; [1]) | Blackgrass plant response rating (blackgrass; [2]) | Plant response rating, Blackgrass (blackgrass; [3]) | Plant response rating, Blackgrass (blackgrass; [4]) | Plant response rating, Blackgrass (blackgrass; [5]) | Blackgrass plant response rating (blackgrass; [6]) | Blackgrass plant response rating (blackgrass; [7]) | Blackgrass plant response rating (blackgrass; [8])
10: Giant foxtail plant response rating (giant foxtail; [6])
4: Crabgrass plant response rating (crabgrass; [8]) | Soybean plant response rating (soybean; [2]) | Soybean plant response rating (soybean; [7])
6: Plant response rating, Redroot pigweed (pigweed; [5]) | Redroot pigweed plant response rating (pigweed; [6]) | Crabgrass plant response rating (crabgrass; [6])
5: Plant response rating, Redroot pigweed (pigweed; [4]) | Plant response rating, Crabgrass (crabgrass; [5])
